Experimental data: patent US20040167181A1, “Methods of treating conditions associated with an Edg-3 receptor” (priority 2003, published 2004)

Experiments:
Endothelin ETA = target: T1, Endothelin ETA (Homo sapiens, UniProt P25101); assay: Radioligand binding assay, Endothelin ETA; conditions: Human recombinant CHO cells; 0.03 nM 125 Endothelin; significance criteria ≦50% of max stimulation or inhibition
T1 construct: expressed in transfected cells; host or cells: CHO cells
T1 sequence (P25101 21-427): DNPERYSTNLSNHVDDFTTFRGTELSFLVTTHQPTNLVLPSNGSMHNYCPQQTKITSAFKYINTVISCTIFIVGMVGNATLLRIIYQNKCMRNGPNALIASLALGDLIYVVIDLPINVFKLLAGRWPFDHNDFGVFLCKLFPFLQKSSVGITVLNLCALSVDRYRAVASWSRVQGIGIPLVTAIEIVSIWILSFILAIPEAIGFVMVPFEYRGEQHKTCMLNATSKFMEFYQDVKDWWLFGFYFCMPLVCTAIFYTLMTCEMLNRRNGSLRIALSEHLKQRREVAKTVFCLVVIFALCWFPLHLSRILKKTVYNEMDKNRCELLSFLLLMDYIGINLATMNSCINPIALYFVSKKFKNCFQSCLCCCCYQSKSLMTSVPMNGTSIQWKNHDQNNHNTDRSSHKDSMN
Experimental: (§1) In order to test the selectivity of compounds, various radioligand binding assays were performed using numerous non-Edg receptor targets as listed below.
(§2) A radioligand binding assay was performed using adrenergic α1 according to the method of Greengrass and Bremner 1979, Eur. J. Pharmacol. 55:323-326. A radioligand binding assay was performed using adrenergic α2 according to the method of Boyajian and Leslie, 1987, J. Pharmacol. Exp. Ther. 241:1092-1098. A radioligand binding assay was performed using adrenergic β according to the method of Feve et al., 1994, Proc. Natl. Acad. Sci. USA 91:5677-5681. A radioligand binding assay was performed using angiotensin AT2 according to the method of Whitebread et al., 1991, Biochem. Biophys. Res. Comm. 181:1365-1371. A radioligand binding assay was performed using calcium channel Type L, dihydropyridine according to the method of Ehlert et al., 1982, Life Sci. 30:2191-2202. A radioligand binding assay was performed using dopamine D2L according to the method of Bunzo et al., 1988, Nature 336:783-787. A radioligand binding assay was performed using endothelin ETA according to the method of Mihara et al., 1994, J. Pharmacol. Exp Ther. 268:1122-1127. A radioligand binding assay was performed using histamine H1 Central according to the method of Hill et al., 1978, J. Neurochem. 31:997-1004. […]
(§3) Quantitation Method: Radioligand Binding […]

Histamine H1, Central = target: T2, Histamine H1, Central (Cavia porcellus, UniProt P31389); assay: Radioligand binding assay, Histamine H1, Central; conditions: Guinea pig cerebellum; 1.75 nM 3H Pyrilamine; significance criteria ≦50% of max stimulation or inhibition
T2 construct: from tissue; host or cells: Guinea pig cerebellum
T2 sequence (P31389 whole entry): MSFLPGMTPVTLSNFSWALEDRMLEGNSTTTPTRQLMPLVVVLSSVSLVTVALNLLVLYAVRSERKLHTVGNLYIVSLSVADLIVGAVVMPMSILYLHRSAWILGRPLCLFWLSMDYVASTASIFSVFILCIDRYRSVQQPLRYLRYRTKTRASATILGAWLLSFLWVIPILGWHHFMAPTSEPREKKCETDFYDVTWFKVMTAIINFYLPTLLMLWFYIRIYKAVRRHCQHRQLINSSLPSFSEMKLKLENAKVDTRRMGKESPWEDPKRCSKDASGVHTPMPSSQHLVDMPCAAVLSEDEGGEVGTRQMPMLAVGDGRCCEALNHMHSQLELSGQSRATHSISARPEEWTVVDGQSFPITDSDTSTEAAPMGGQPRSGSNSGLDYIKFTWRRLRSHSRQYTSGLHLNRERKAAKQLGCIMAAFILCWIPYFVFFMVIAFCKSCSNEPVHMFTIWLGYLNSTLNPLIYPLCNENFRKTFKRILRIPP
Experimental: as §1, §2, §3

Edg-2 = target: T3, Edg-2 (Homo sapiens, UniProt Q92633); assay: LPA-stimulated calcium increases in HTC cells expressing Edg-2; assay type: cell-based; conditions: concentrations as high as 10 μM
T3 construct: expressed in transfected cells; host or cells: HTC (rat hepatoma) cells
T3 sequence (Q92633 whole entry): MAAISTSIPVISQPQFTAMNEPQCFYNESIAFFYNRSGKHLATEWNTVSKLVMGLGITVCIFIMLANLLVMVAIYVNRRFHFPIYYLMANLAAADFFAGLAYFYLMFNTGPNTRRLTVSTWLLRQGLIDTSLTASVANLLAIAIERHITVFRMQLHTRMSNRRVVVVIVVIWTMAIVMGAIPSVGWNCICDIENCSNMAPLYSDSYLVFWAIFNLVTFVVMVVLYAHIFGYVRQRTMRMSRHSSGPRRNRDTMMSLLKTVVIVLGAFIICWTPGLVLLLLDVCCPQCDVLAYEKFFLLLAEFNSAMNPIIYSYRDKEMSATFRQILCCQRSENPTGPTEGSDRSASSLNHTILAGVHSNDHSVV

[1] = system: Muscarinic non-selective, Central; assay type: binding; conditions: Wistar rat cerebral cortex; 0.29 nM 3H Quinuclidinyl benzilate; significance criteria ≦50% of max stimulation or inhibition
Edg-5 = target: T4, Edg-5 (Homo sapiens, UniProt O95136); assay: S1P-stimulated calcium increases in HTC cells expressing Edg-5; assay type: cell-based; conditions: concentrations as high as 10 μM
T4 construct: expressed in transfected cells; host or cells: HTC (rat hepatoma) cells
T4 sequence (O95136 whole entry, species assumed): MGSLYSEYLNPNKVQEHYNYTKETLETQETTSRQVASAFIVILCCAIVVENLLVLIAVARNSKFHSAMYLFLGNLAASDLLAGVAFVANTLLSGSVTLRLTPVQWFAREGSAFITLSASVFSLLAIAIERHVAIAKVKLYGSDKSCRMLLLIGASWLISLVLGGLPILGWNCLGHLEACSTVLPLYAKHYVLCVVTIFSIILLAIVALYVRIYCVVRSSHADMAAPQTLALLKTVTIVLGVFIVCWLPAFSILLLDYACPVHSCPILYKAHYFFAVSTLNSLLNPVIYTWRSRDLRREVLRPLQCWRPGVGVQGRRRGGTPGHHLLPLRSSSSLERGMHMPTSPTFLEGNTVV

Adrenergic α2 = assay: Radioligand binding assay, Adrenergic α2; conditions: Wistar rat cerebral cortex; 0.7 nM 3H Rauwolscine; significance criteria ≦50% of max stimulation or inhibition
Experimental: as §1, §2, §3

[2] = system: Serotonin 5-HT1, non-selective; assay: Radioligand binding assay, Serotonin 5-HT1, non-selective; conditions: Wistar rat cerebral cortex; 2 nM 3H Serotonin (5-HT) Trifluoroacetate; significance criteria ≦50% of max stimulation or inhibition
Experimental: as §1, §2, §3

[3] = system: Adrenergic α1, non-selective; assay: Radioligand binding assay, Adrenergic α1, non-selective; conditions: Wistar Rat brain; 0.25 nM 3H Prazosin; significance criteria ≦50% of max stimulation or inhibition
Experimental: as §1, §2, §3

Cc1c(-c2ccccc2)nc2ccccc2c1C(=O)NCc1ccc(F)cc1 [Compound 101]
no significant activity: activity in radioligand binding assay (Endothelin ETA) | activity in radioligand binding assay (Histamine H1, Central) | activity in radioligand binding assay [1] | activity in radioligand binding assay (Adrenergic α2) | activity in radioligand binding assay [2] | activity in radioligand binding assay [3]
did not inhibit: inhibition of LPA-stimulated calcium increases (Edg-2) | inhibition of S1P-stimulated calcium increases (Edg-5)
